Values quoted from earlier work in patent publication US20140256822A1, “TRANSMUCOSAL DRUG DELIVERY SYSTEM” (priority 2013, published 2014).

Settings: at a pH of 6.8

## CN1CCCC1c1cccnc1 (stereo not shown) [nicotine]
  nicotine in the free base form: about 10%
